From publication PMC12488499, “Molecular mechanism of ultrafast transport by plasma membrane Ca^2+-ATPases” (Nature, 2025)

Tests used:
PMCA2 [1] = target: T1, PMCA2 (Mus musculus, UniProt Q9R0K7); experiment: cryo-EM structure, E1-ATP state; assay type: binding; design: gene Atp2b2; mouse PMCA2 (NM_001036684.3) with C-terminal FLAG or His-FLAG tag, expressed in tsA201 NPTN/BSG double knockout cells; with NPTN
PMCA2 [2] = target: T1, PMCA2; experiment: whole-cell patch clamp, BKCa-based Ca2+ transport assay in CHO cells; design: gene Atp2b2; PMCA2 C-terminally fused with GFP, co-expressed with NPTN-RFP in CHO cells; with NPTN

T1 sequence (Q9R0K7 whole entry, the tested form may be a part): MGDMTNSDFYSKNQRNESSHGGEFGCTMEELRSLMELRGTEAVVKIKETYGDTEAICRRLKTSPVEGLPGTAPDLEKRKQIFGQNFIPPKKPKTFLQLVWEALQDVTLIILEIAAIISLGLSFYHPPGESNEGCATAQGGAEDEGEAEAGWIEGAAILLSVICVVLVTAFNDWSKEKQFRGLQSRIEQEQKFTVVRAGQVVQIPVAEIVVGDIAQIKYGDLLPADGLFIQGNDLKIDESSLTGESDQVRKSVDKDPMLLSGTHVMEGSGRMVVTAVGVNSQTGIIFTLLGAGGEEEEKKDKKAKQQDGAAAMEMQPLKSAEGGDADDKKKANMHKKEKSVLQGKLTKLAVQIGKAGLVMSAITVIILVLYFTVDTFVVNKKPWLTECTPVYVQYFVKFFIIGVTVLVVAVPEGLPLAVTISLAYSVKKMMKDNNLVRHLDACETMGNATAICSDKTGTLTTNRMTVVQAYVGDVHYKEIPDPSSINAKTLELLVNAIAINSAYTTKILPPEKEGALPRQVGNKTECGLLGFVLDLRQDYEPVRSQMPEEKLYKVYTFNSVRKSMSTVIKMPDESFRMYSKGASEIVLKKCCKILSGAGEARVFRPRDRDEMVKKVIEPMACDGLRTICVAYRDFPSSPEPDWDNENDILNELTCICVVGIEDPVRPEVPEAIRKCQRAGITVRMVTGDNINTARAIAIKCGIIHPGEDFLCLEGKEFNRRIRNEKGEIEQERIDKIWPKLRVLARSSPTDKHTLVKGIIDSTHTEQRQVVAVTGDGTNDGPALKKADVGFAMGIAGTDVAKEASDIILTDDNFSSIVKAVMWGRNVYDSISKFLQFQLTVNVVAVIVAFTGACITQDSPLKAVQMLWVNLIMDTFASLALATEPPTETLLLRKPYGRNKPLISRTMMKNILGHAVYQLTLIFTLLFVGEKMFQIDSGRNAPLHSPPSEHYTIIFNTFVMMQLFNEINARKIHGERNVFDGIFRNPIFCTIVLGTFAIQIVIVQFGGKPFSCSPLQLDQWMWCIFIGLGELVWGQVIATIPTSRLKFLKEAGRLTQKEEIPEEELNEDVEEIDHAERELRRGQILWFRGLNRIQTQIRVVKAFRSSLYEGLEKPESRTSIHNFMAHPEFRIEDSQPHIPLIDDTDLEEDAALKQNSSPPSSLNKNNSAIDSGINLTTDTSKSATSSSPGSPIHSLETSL
T1 sequence (P97300 29-397 partner): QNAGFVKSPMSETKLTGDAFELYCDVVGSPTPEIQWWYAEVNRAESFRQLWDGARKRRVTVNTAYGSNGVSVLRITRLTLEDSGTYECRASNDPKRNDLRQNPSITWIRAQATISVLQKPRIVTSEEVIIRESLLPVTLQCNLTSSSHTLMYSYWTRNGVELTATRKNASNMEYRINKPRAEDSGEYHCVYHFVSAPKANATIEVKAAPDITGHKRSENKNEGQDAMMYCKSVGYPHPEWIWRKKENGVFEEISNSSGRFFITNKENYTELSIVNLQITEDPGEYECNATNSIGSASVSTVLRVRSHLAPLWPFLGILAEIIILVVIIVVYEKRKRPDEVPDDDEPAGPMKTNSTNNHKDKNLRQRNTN

Compound | cryo-EM structure, E1-ATP state (PMCA2 [1]) | IC50 (PMCA2 [2])
Nc1ncnc2c1ncn2[C@@H]1O[C@H](CO[P@](=O)(O)O[P@](=O)(O)NP(=O)(O)O)[C@@H](O)[C@H]1O [AMPPNP] | The bound AMPPNP molecule is shown, with the corresponding cryo-EM density in grey. | –
C/C=C(/C)C(=O)O[C@H]1C(C)=C2[C@H]([C@@H]1OC(=O)CCCCCCC)[C@@](C)(OC(C)=O)C[C@H](OC(=O)CCC)[C@@]1(O)[C@H]2OC(=O)[C@@]1(C)O [thapsigargin] | – | 2600 nM
